Measured values taken from patent publication US8192962B2, “Processes for detecting toxic substances” (Daikin Industries, Ltd., priority 2001, dated 2012).

Test system: Genes belonging to other category
Assay: DNA chip mRNA expression in yeast, genes belonging to other category (Table 9)
Type: cell-based, Saccharomyces cerevisiae S288C
Method in brief: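 Measured as treated-to-untreated fluorescence ratio on a full-genome yeast DNA chip. Cells (S288C, YPD, 25° C.) were exposed in log phase for two hours to one chemical, dosed to curb growth without killing.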

## [Cl][Pb][Cl] [(4), PbCl2]
Yeast gene YAR010C
  The level of expressed mRNA in the presence of chemical substance/The level of expressed mRNA in the absence of chemical substance: 0.8
Yeast gene YBL005W-A
  The level of expressed mRNA in the presence of chemical substance/The level of expressed mRNA in the absence of chemical substance: 0.9
Yeast gene YBL041W
  The level of expressed mRNA in the presence of chemical substance/The level of expressed mRNA in the absence of chemical substance: 1.0
Yeast gene YBL043W
  The level of expressed mRNA in the presence of chemical substance/The level of expressed mRNA in the absence of chemical substance: 1.3
Yeast gene YBL078C
  The level of expressed mRNA in the presence of chemical substance/The level of expressed mRNA in the absence of chemical substance: 2.6
Yeast gene YBR214W
  The level of expressed mRNA in the presence of chemical substance/The level of expressed mRNA in the absence of chemical substance: 2.0
Yeast gene YCL020W
  The level of expressed mRNA in the presence of chemical substance/The level of expressed mRNA in the absence of chemical substance: 1.1
Yeast gene YCL027W
  The level of expressed mRNA in the presence of chemical substance/The level of expressed mRNA in the absence of chemical substance: 1.0
Yeast gene YCR071C
  The level of expressed mRNA in the presence of chemical substance/The level of expressed mRNA in the absence of chemical substance: 0.8
Yeast gene YCR088W
  The level of expressed mRNA in the presence of chemical substance/The level of expressed mRNA in the absence of chemical substance: 0.9
Yeast gene YDL008W
  The level of expressed mRNA in the presence of chemical substance/The level of expressed mRNA in the absence of chemical substance: 1.1
Yeast gene YDL238C
  The level of expressed mRNA in the presence of chemical substance/The level of expressed mRNA in the absence of chemical substance: 1.7
Yeast gene YDR055W
  The level of expressed mRNA in the presence of chemical substance/The level of expressed mRNA in the absence of chemical substance: 2.8
Yeast gene YDR084C
  The level of expressed mRNA in the presence of chemical substance/The level of expressed mRNA in the absence of chemical substance: 1.1
Yeast gene YDR085C
  The level of expressed mRNA in the presence of chemical substance/The level of expressed mRNA in the absence of chemical substance: 3.4
Yeast gene YDR104C
  The level of expressed mRNA in the presence of chemical substance/The level of expressed mRNA in the absence of chemical substance: 1.2
Yeast gene YDR115W
  The level of expressed mRNA in the presence of chemical substance/The level of expressed mRNA in the absence of chemical substance: 1.5
Yeast gene YDR259C
  The level of expressed mRNA in the presence of chemical substance/The level of expressed mRNA in the absence of chemical substance: 1.4
Yeast gene YDR315C
  The level of expressed mRNA in the presence of chemical substance/The level of expressed mRNA in the absence of chemical substance: 1.3
Yeast gene YDR358W
  The level of expressed mRNA in the presence of chemical substance/The level of expressed mRNA in the absence of chemical substance: 1.1
Yeast gene YDR388W
  The level of expressed mRNA in the presence of chemical substance/The level of expressed mRNA in the absence of chemical substance: 1.0
Yeast gene YDR432W
  The level of expressed mRNA in the presence of chemical substance/The level of expressed mRNA in the absence of chemical substance: 1.4
Yeast gene YDR481C
  The level of expressed mRNA in the presence of chemical substance/The level of expressed mRNA in the absence of chemical substance: 0.7
Yeast gene YDR510W
  The level of expressed mRNA in the presence of chemical substance/The level of expressed mRNA in the absence of chemical substance: 1.3
Yeast gene YEL042W
  The level of expressed mRNA in the presence of chemical substance/The level of expressed mRNA in the absence of chemical substance: 0.9
Yeast gene YEL066W
  The level of expressed mRNA in the presence of chemical substance/The level of expressed mRNA in the absence of chemical substance: 2.2
Yeast gene YER039C
  The level of expressed mRNA in the presence of chemical substance/The level of expressed mRNA in the absence of chemical substance: 4.1
Yeast gene YER107C
  The level of expressed mRNA in the presence of chemical substance/The level of expressed mRNA in the absence of chemical substance: 0.6
Yeast gene YER130C
  The level of expressed mRNA in the presence of chemical substance/The level of expressed mRNA in the absence of chemical substance: 0.8
Yeast gene YFL022C
  The level of expressed mRNA in the presence of chemical substance/The level of expressed mRNA in the absence of chemical substance: 0.6
Yeast gene YFL028C
  The level of expressed mRNA in the presence of chemical substance/The level of expressed mRNA in the absence of chemical substance: 1.5
Yeast gene YFL043C
  The level of expressed mRNA in the presence of chemical substance/The level of expressed mRNA in the absence of chemical substance: 1.2
Yeast gene YGL158W
  The level of expressed mRNA in the presence of chemical substance/The level of expressed mRNA in the absence of chemical substance: 12.9
Yeast gene YGL229C
  The level of expressed mRNA in the presence of chemical substance/The level of expressed mRNA in the absence of chemical substance: 0.8
Yeast gene YGR136W
  The level of expressed mRNA in the presence of chemical substance/The level of expressed mRNA in the absence of chemical substance: 0.7
Yeast gene YGR189C
  The level of expressed mRNA in the presence of chemical substance/The level of expressed mRNA in the absence of chemical substance: 3.5
Yeast gene YGR213C
  The level of expressed mRNA in the presence of chemical substance/The level of expressed mRNA in the absence of chemical substance: 6.8
Yeast gene YGR257C
  The level of expressed mRNA in the presence of chemical substance/The level of expressed mRNA in the absence of chemical substance: 1.1
Yeast gene YHR004C
  The level of expressed mRNA in the presence of chemical substance/The level of expressed mRNA in the absence of chemical substance: 1.1
Yeast gene YHR071W
  The level of expressed mRNA in the presence of chemical substance/The level of expressed mRNA in the absence of chemical substance: 1.6
Yeast gene YHR139C
  The level of expressed mRNA in the presence of chemical substance/The level of expressed mRNA in the absence of chemical substance: 9.3
Yeast gene YHR142W
  The level of expressed mRNA in the presence of chemical substance/The level of expressed mRNA in the absence of chemical substance: 0.8
Yeast gene YIL123W
  The level of expressed mRNA in the presence of chemical substance/The level of expressed mRNA in the absence of chemical substance: 1.5
Yeast gene YIL140W
  The level of expressed mRNA in the presence of chemical substance/The level of expressed mRNA in the absence of chemical substance: 1.4
Yeast gene YJL073W
  The level of expressed mRNA in the presence of chemical substance/The level of expressed mRNA in the absence of chemical substance: 0.7
Yeast gene YJL089W
  The level of expressed mRNA in the presence of chemical substance/The level of expressed mRNA in the absence of chemical substance: 0.8
Yeast gene YJL116C
  The level of expressed mRNA in the presence of chemical substance/The level of expressed mRNA in the absence of chemical substance: 1.9
Yeast gene YJR004C
  The level of expressed mRNA in the presence of chemical substance/The level of expressed mRNA in the absence of chemical substance: 0.6
Yeast gene YJR086W
  The level of expressed mRNA in the presence of chemical substance/The level of expressed mRNA in the absence of chemical substance: 1.4
Yeast gene YKL008C
  The level of expressed mRNA in the presence of chemical substance/The level of expressed mRNA in the absence of chemical substance: 0.8
